Experimental data as given in patent US6187905A, “Alpha-ketoamide derivatives” (Hoffmann-La Roche Inc., priority 1998, dated 2001).
*1 amine or outer side, *2 acyl side, *3 side chain or, on linkers, in order; H or OH if unused. Where a SMILES comes first, the peptide text is derived from it. [ ]: non-standard residue; d: D form. The star is where a group is joined. Phe(2-Me) = Cc1ccccc1C[C@H](N)C(=O)O; NleCONH2 = CCCC[C@H](N*)C(=O)C(N)=O; Suc = O=C(CCC(=O)[*:2])[*:1]; Tle = CC(C)(C)[C@H](N)C(=O)O

What follows are compounds tested against HCV proteinase (Hepatitis C virus genotype 1a, UniProt P27958) (assay: HCV proteinase inhibition assay (described in WO 98/22496)). Details: not given.
Type: biochemical
Text: As mentioned earlier, the compounds of formula I and their salts are inhibitors of proteases of viral origin. For example, all compounds of formula 1 are inhibitors against HCV protease.

Sequence of HCV proteinase (P27958 1027-1208): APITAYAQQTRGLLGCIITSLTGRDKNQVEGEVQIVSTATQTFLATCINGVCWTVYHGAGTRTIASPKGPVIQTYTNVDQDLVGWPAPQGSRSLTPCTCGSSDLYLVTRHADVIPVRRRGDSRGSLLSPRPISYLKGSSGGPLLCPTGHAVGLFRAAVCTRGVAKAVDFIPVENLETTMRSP

Point of comparison: `CCCC[C@H](NC(=O)[C@H](CC(C)C)NC(=O)[C@@H](NC(=O)[C@H](Cc1ccccc1C)NC(=O)[C@H](CCC(=O)O)NC(=O)[C@H](CC(=O)O)NC(=O)CCC(=O)O)C(C)(C)C)C(=O)C(N)=O` [J, 3(S)-[[N-[N-[N-[N-[N-(3-Carboxypropionyl)-L-α-aspartyl]-L-α-glutamyl]-2-methyl-L-phenylalanyl]-3-methyl-L-valyl]-L-leucyl]amino]-2-oxoheptanamide] (Suc-DE[Phe(2-Me)][Tle]L-NleCONH2), IC50 11.5 nM. Against it:
- COc1cccc(CNC(=O)C(=O)C(CC(F)(F)F)NC(=O)[C@H](CC(C)C)NC(=O)[C@@H](NC(=O)[C@H](Cc2ccccc2C)NC(=O)[C@H](CCC(=O)O)NC(=O)[C@H](CC(=O)O)NC(=O)CCC(=O)O)C(C)(C)C)c1 (mixture of isomers) [F, 3(RS)-[[N-[N-[N-[N-[N-(3-Carboxypropionyl)-L-α-aspartyl]-L-α-glutamyl]-2-methyl-L-phenylalanyl]-3-methyl-L-valyl]-L-leucyl]amino]-5,5,5-trifluoro-N-(3-methoxybenzyl)-2-oxovaleramide] — 1.9-fold lower, 6 nM
- Cc1ccccc1C[C@H](NC(=O)[C@H](CCC(=O)O)NC(=O)[C@H](CC(=O)O)NC(=O)CCC(=O)O)C(=O)N[C@H](C(=O)N[C@@H](CC(C)C)C(=O)NC(CC(F)(F)F)C(=O)C(N)=O)C(C)(C)C (single isomer, unassigned) [D, 3(R or S)-[[N-[N-[N-[N-[N-(3-Carboxypropionyl)-L-α-aspartyl]-L-α-glutamyl]-2-methyl-L-phenylalanyl]-3-methyl-L-valyl]-L-leucyl]amino]-5,5,5-trifluoro-2-oxovaleramide] — 1.6-fold lower, 7 nM
- Cc1ccccc1C[C@H](NC(=O)[C@H](CCC(=O)O)NC(=O)[C@H](CC(=O)O)NC(=O)CCC(=O)O)C(=O)N[C@H](C(=O)N[C@@H](CC(C)C)C(=O)NC(CC(F)(F)F)C(=O)C(=O)N[C@H](c1ccccc1)C(C)C)C(C)(C)C (mixture of isomers) [C, 3(RS)-[[N-[N-[N-[N-[N-(3-Carboxypropionyl)-L-α-aspartyl]-L-α-glutamyl]-2-methyl-L-phenylalanyl]-3-methyl-L-valyl]-L-leucyl]amino]-5,5,5-trifluoro-N-(2-methyl-1(S)-phenylpropyl)-2-oxovaleramide] — 1.6-fold lower, 7 nM
- Cc1ccccc1C[C@H](NC(=O)[C@H](CCC(=O)O)NC(=O)[C@H](CC(=O)O)NC(=O)CCC(=O)O)C(=O)N[C@H](C(=O)N[C@@H](CC(C)C)C(=O)NC(CC(F)(F)F)C(=O)C(=O)NCc1ccccc1)C(C)(C)C (mixture of isomers) [H, N-Benzyl-3(RS)-[[N-[N-[N-[N-[N-(3-carboxypropionyl)-L-α-aspartyl]-L-α-glutamyl]-2-methyl-L-phenylalanyl]-3-methyl-L-valyl]-L-leucyl]amino]-5,5,5-trifluoro-2-oxovaleramide] — 2.9-fold lower, 4 nM
- Cc1ccccc1C[C@H](NC(=O)[C@H](CCC(=O)O)NC(=O)[C@H](CC(=O)O)NC(=O)CCC(=O)O)C(=O)N[C@H](C(=O)N[C@@H](CC(C)C)C(=O)NC(CC(F)(F)F)C(=O)C(=O)NCc1ccc(O)cc1)C(C)(C)C (mixture of isomers) [E, 3(RS)-[[N-[N-[N-[N-[N-(3-Carboxypropionyl)-L-α-aspartyl]-L-α-glutamyl]-2-methyl-L-phenylalanyl]-3-methyl-L-valyl]-L-leucyl]amino]-5,5,5-trifluoro-N-(4-hydroxybenzyl)-2-oxovaleramide] — 2.9-fold lower, 4 nM
- CC[C@H](NC(=O)C(=O)C(CC(F)(F)F)NC(=O)[C@H](CC(C)C)NC(=O)[C@@H](NC(=O)[C@H](Cc1ccccc1C)NC(=O)[C@H](CCC(=O)O)NC(=O)[C@H](CC(=O)O)NC(=O)CCC(=O)O)C(C)(C)C)c1ccccc1 (mixture of isomers) [B, 3(RS)-[[N-[N-[N-[N-[N-(3-Carboxypropionyl)-L-α-aspartyl]-L-α-glutamyl]-2-methyl-L-phenylalanyl]-3-methyl-L-valyl]-L-leucyl]amino]-5,5,5-trifluoro-2-oxo-N-(1(S)-phenylpropyl)valeramide] — 1.6-fold lower, 7 nM
- Cc1ccccc1C[C@H](NC(=O)[C@H](CCC(=O)O)NC(=O)[C@H](CC(=O)O)NC(=O)CCC(=O)O)C(=O)N[C@H](C(=O)N[C@@H](CC(C)C)C(=O)NC(CC(F)(F)F)C(=O)C(=O)N[C@@H](C)c1ccccc1)C(C)(C)C (mixture of isomers) [G, 3(RS)-[[N-[N-[N-[N-[N-(3-Carboxypropionyl)-L-α-aspartyl]-L-α-glutamyl]-2-methyl-L-phenylalanyl]-3-methyl-L-valyl]-L-leucyl]amino]-5,5,5-trifluoro-N-(α(S)-methylbenzyl)-2-oxovaleramide] — 2.9-fold lower, 4 nM

Same assay, conditions: read-out: HCV proteinase IC50

Point of comparison: `Cc1ccccc1C[C@H](NC(=O)[C@H](CCC(=O)O)NC(=O)[C@H](CC(=O)O)NC(=O)CCC(=O)O)C(=O)N[C@H](C(=O)N[C@@H](CC(C)C)C(=O)NC(CC(F)(F)F)C(=O)C(=O)N[C@@H](C)c1ccc2ccccc2c1)C(C)(C)C` (mixture of isomers) [I], IC50 8 nM. Against it:
- Cc1ccccc1C[C@H](NC(=O)[C@H](CCC(=O)O)NC(=O)[C@H](CC(=O)O)NC(=O)CCC(=O)O)C(=O)N[C@H](C(=O)N[C@@H](CC(C)C)C(=O)NC(CC(F)(F)F)C(=O)C(=O)N[C@@H](C)c1ccc2ccccc2c1)C(C)(C)C (mixture of isomers) [A] — 2-fold lower, 4 nM
